# According to US20240342138A1, “MICROTUBULE TARGETING AGENTS” (BPGbio, Inc., priority 2023, published 2024):
# What was measured:
# [1] = Blood brain barrier permeability (PVDF membrane coated with porcine brain polar lipid extract); type: in vitro ADME
# Protocol: Preparation of Donor Solution a) 0.2 mM working solution was prepared by diluting 10 mM stock solution with DMSO. b) 10 μM donor solution (5% DMSO) was prepared by diluting 20 μL of working solution with 380 μL PBS. 2) 150 μL of 10 μM donor solutions to each well of the donor plate, whose PVDF membrane was precoated with 5 μL of 1% brain polar lipid extract (Porcine)/dodecane mixture. Duplicates were prepared. 3) 300 μL of PBS was added to each well of the PTFE acceptor plate. 4) The donor plate and acceptor plate were combined together and incubated for 4h at room temperature with shaking at 300 rpm. 5) Preparation of TO sample: 20 μL donor solution was transferred to new well followed by the addition of 250 μL PBS (DF: 13.5), 130 μL ACN (containing internal standard) as TO sample. 6) Preparation of acceptor sample: The plate was removed from incubator. 270 μL solution was transferred from each acceptor well and mixed with 130 μL ACN (containing internal standard) as acceptor sample. 7) Preparation of donor sample: […] was transferred from each donor well and mixed with 250 μL PBS (DF: 13.5), 130 μL ACN (containing internal standard) as donor sample. 8) Acceptor samples and donor samples were all analyzed by LC/MS/MS.
# P-gp = P-gp (Homo sapiens, UniProt P08183); assay: P-gp substrate status; type: in vitro ADME
# C6 rat glioma cells = assay: Orthotopic syngeneic C6 glioma model; type: in vivo, Sprague Dawley rats
# Excerpt: FIG. 14A-14E show the efficacy of Compound 1 in glioblastoma cell lines in vitro and in a glioblastoma rat model (C6). A) In vitro potency of Compound 1 in four different glioblastoma cell lines as evaluated by Realtime-Glo™ assay (C6, and U87 cells) or ATPlite 1Step™ Perkin Elmer (performed by NTRC Oncolines; T98G and A-172 cells). B) Study design overview: C6 rat glioma cells (3×10^5) were implanted into the right entorhinal cortex/subiculum region of male Sprague Dawley rats and tumor burden was assessed 14 days post inoculation using MRI and animals randomized into […] (4) groups (vehicle control, 5 mg/kg, 10 mg/kg, and 20 mg/kg Compound 1) with 4 animals per group. […] C) Body weights were measured every two days. […]
# Glioblastoma (GBM) is the most common and highly malignant form of primary brain tumor with a poor prognosis despite advances in treatments. […] Accordingly, the in vitro potency of Compound 1 was examined in four different glioblastoma cell lines as evaluated by Realtime-Glo™ assay (C6, and U87 cells) or ATPlite 1Step™ Perkin Elmer (performed by NTRC Oncolines; T98G and A-172 cells). […] Therefore, the in vivo tumor activity of Compound 1 was next assessed in Sprague Dawley rats implanted with C6 rat glioma cells into the right entorhinal cortex/subiculum region (AP: −7 mm; ML: 4.5 mm, DV: 5 mm). […]
# HCT116 cells = assay: Spindle assembly checkpoint activation, flow cytometry; type: cell-based; details: 300 nM; FIG. 6
# Protocol: • 1. Hct116 were grown in DMEM with 10% FBS and 1% Penicillin/Streptomycin. • 2. Cells were plated into 6 well dishes at indicated cell numbers below (i.e. plate 1=300 k cells per well) and treatment started later the same day. Asynchronous (Asynch) control cells (Plate 1 were collected 1 day after plating. Compound 1 and Nocodazole were both 300 nM, CDK1i Ro-3306 10 μM, Aurora Bi (ABi) Hesperadin 50 μM. • 3. Cells were treated with Compound 1 or Noc for 20 hours then sequentially without changing media they were treated with CDK1i or ABi for 4 more hours. Alternatively, cells were treated with Compound 1 or Noc for 20 h then washed twice with warm media and grown in fresh media for 4 hours to allow passage through mitosis into G1 as diploid cells. • 4. Note that plate 4 treatments were in general extremely toxic to cells or inconclusive.
# • 1. Collected all media and cells into the same conical tube. Centrifuged cells at 1000×g for 3 min. • 2. Aspirated off supernatant, washed with PBS. • 3. Centrifuged cells as above. • 4. Resuspended cells in cold 400 μl and while gently vortexing added 1 mL cold 100% ethanol slowly dropwise (fixes and permeabilizes) • 5. Stored at 4 degrees C. for at a minimum of 1 hour, or up to one week. • 6. […] Analyzed data with FlowJo 10 software and made graphs with GraphPad Prism.
# Sequence of P-gp (P08183 whole entry): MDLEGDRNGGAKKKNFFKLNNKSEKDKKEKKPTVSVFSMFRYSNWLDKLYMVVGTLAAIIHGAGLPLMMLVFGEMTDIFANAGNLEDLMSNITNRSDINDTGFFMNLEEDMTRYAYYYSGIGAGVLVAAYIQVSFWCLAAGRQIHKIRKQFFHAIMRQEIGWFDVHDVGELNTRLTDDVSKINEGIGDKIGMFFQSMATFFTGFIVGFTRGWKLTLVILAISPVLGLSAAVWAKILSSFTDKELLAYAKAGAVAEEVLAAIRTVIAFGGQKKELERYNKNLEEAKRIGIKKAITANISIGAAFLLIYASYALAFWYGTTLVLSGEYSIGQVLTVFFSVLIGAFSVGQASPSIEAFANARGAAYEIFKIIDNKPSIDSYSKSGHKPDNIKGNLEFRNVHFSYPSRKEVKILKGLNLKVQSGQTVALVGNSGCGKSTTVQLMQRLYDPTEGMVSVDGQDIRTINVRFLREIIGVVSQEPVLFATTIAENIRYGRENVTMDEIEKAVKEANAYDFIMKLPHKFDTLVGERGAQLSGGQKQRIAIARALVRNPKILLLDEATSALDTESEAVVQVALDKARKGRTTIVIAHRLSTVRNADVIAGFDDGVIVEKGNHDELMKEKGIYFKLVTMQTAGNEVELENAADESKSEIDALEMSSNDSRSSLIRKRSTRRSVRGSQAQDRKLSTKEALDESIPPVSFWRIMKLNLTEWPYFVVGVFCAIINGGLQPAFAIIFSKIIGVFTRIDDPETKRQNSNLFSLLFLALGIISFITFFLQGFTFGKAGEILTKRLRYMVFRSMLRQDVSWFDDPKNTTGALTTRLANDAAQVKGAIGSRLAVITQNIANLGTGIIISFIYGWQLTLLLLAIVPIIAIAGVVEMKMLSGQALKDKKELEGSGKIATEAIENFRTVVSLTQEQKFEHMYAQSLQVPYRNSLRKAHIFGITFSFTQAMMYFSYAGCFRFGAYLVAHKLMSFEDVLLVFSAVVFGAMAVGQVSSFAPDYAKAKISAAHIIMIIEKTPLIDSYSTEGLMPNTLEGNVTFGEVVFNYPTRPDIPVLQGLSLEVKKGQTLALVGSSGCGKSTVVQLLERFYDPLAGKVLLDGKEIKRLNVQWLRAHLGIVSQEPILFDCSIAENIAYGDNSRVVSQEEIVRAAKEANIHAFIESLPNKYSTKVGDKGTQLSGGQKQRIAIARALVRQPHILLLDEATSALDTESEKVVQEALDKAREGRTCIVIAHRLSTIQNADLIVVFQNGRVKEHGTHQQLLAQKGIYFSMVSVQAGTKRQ
compound,measurement,setting,value
"COc1ccccc1-c1nc(CNC(=O)c2ccccc2OC(F)F)n[nH]1 [Compound 1, 2-(difluoromethoxy)-N-[[5-(2-methoxyphenyl)-1H-1,2,4-triazol-3-yl]methyl]benzamide]",Permeability,"[1]; 10 μM, 4 h",highly permeable and High
same,"Papp at 4 h, 10 μM","[1]; PAMPA, read-out: Mean Pe",6.76 ×10⁻⁶ cm/s
same,"recovery at 4 h, 10 μM","[1]; pig, not told",85.8%
same,P-gp substrate,P-gp,not a substrate for P-gp
same,Animals still alive at day 60 post-treatment initiation,"C6 rat glioma cells; 2 in each treatment group (5, 10, 20 mg/kg)",six
same,MRI imaging of surviving animals,C6 rat glioma cells; FIG. 14E,reduction in tumor size and tumor fragmentation
same,"Spindle assembly checkpoint activation, mechanism",HCT116 cells,a mechanism at or before microtubule-kinetochore attachment in M phase of the cell cycle
